Test results as given in patent EP3150203B1, “COMPOUNDS WITH (1E,6E)-1,7-BIS-(3,4- DIMETHOXYPHENYL)-4,4-DISSTITUTED-HEPA-1,6-DIENE-3,5-DI-ONE STRUCTURAL SCAFFOLD,THEIR BIOLOGICAL ACTIVITY, AND USES THEREOF” (Allianz Pharmascience Ltd, priority 2012, dated 2013).
Like-named read-outs stand apart in the source and are kept apart here.

What was measured:
Androgen Receptor (AR) = biological target: T1, Androgen Receptor (AR) (Homo sapiens, UniProt P10275, H875Y, form not given); test: Western Blot analysis of AR protein expression in CWR22Rv1 cells; assay type: cell-based; details: for IC50: Western blotting
T1 sequence (P10275 1-920 H875Y): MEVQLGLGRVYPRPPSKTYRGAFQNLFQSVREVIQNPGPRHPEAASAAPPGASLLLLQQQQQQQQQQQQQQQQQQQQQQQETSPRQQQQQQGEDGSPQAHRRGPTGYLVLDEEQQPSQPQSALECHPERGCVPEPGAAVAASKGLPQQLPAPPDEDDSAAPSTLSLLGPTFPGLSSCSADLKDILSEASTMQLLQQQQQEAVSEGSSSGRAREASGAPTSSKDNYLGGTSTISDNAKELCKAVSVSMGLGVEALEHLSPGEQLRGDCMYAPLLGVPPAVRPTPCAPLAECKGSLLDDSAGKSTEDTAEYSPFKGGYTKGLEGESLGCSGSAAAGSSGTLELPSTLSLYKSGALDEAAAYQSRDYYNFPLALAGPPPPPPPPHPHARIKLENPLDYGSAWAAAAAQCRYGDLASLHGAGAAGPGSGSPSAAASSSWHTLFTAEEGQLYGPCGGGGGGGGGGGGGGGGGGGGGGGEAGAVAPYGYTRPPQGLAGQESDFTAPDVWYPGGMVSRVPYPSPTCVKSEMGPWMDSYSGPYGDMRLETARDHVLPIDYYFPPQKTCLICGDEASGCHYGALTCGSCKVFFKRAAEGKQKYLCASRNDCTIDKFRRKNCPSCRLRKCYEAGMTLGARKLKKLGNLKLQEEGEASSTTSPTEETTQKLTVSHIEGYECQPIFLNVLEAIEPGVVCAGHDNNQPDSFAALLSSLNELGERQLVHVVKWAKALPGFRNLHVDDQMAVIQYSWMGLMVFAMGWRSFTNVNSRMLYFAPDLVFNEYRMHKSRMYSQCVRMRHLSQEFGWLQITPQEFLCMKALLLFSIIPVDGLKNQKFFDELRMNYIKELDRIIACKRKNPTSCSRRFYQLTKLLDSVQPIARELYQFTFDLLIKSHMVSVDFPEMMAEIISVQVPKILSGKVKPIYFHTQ

[1] = test system: CWR22Rv1 cells (human prostate cancer); test: MTT cell growth assay, CWR22Rv1 cells; assay type: cell-based; details: 5 days, read-out: Inhibition of Tumor cells growth IC50
Procedure: The MTT cell proliferation assay was applied in the present invention to detect the capability of compounds to suppress or inhibit prostate cancer cells growth. […] Briefly, 1 x 10^3 LNCaP or CWR22Rv1 cells suspended in complete medium were plated into each well of a 96-well Microtest III tissue culture plate (Falcon, NJ). Two days later, the medium was replaced with RPMI-1640 medium containing 10% charcoal/dextran-deprived FBS (hormone-deprived fetal bovine serum). Testing compounds were added to the medium at indicated concentrations with or without 1 nM DHT and cells were cultured for 5 days in an incubator (at 37 °C). MTT substrate solution (5 mg/ml in PBS) in 1/10 of volume was added to the cells in each well at 2 hours before harvesting. After 2 hour incubation, the plates were centrifuged (10 min at 1,000 rpm) and the supernatant from each well was carefully removed. A 100 µl of lysis buffer (50% dimethyl formamide, 5% sodium dodecyl sulphate, 0.35 M acetic acid, and 50 mM HCl) was added to each well to lyse the cells and dissolved tetrazolium in each well. The relative quantity of enzyme activity from each well was measured based on absorbance read at a wavelength of 450 nm using a Bio-RAD BenchMark microplate reader. Data derived from the MTT assay were also verified by the actual cell count and cell morphology on a separate plate set up in parallel.
For inhibition of tumor cell growth, in vitro, cells were growth in the presence of testing compounds for 5 days, and the cell growth was assayed by standard MTT assay. […] Table 2: Biological activity of Compounds and Derivatives having (1E, 6E)-1,7-bis-(3,4-dimethoxyphenyl)-4,4-disubstituted-hepta-1,6-diene-3,5-dione OR (1E, 10E)-1,11-bis(substituted phenyl)- 6,6-disubstituted undeca-1,3,8,10-tetraene-5,7-dione structural scaffold

[2] = Stability in human plasma (37°C); assay type: in vitro ADME; details: result in words (Table 5 not given)
Description: (§1) Also, at 24 hr where stability of JM49 was only 4%, while its derivative Compound 6 had improved to 79%. Similar improvements in stability (from 6- 24 hr) were also observed in the conditions of rat plasma (Table 4) and human plasma (Table 5). […] Table 3. Relative compound concentration changes (stability) in acidic condition

[3] = Stability in acidic condition (0.1 N HCl, 37°C); assay type: physicochemical
Description: as §1

[4] = Stability in rat plasma (37°C); assay type: in vitro ADME
Description: as §1

[5] = 48 h post-incubation, read-out: Reduction of AR expression IC50 (µM) 48 h
[6] = 24 h post-incubation, read-out: Reduction of AR expression IC50 (µM) 24 h

Compound: COc1ccc(/C=C/C(=O)C(C)(CC2CC2)C(=O)/C=C/c2ccc(OC)c(OC)c2)cc1OC [Compound 1]
- IC50 (Androgen Receptor (AR); [5]): 2.1 µM
- IC50 [1]: 2.4 µM

Compound: COc1ccc(/C=C/C(=O)C(C)(CC2CCC2)C(=O)/C=C/c2ccc(OC)c(OC)c2)cc1OC [Compound 2]
- IC50 ([1]; Homo sapiens, 120 h): > 7.5 µM

Compound: COc1ccc(/C=C/C(=O)C(C)(CC2CCCC2)C(=O)/C=C/c2ccc(OC)c(OC)c2)cc1OC [Compound 4]
- IC50 ([1]; Homo sapiens, 120 h): 2.6 µM

Compound: COc1ccc(/C=C/C(=O)C(C)(CC2CCCCC2)C(=O)/C=C/c2ccc(OC)c(OC)c2)cc1OC [Compound 5]
- IC50 (Androgen Receptor (AR); [5]): 4 µM
- IC50 [1]: 4.6 µM

Compound: CCN(CC)C(=O)CC(C)(C(=O)/C=C/c1ccc(OC)c(OC)c1)C(=O)/C=C/c1ccc(OC)c(OC)c1 [Compound 6]
- stability in human plasma [2]: unexpectedly and dramatically improved
- IC50 ([1]; Homo sapiens, 120 h): 1.5 µM
- Concentration change (%) (stability) in acidic condition ([3]; 0 h): 100%
- Concentration change (%) (stability) in acidic condition ([3]; 2 h): 100%
- Concentration change (%) (stability) in acidic condition ([3]; 4 h): 99%
- Concentration change (%) (stability) in acidic condition ([3]; 24 h): 79%
- Concentration change (%) (stability) in acidic condition ([3]; 48 h): 56%
- Concentration change (%) (stability) in rat plasma ([4]; 0 h): 100%
- Concentration change (%) (stability) in rat plasma ([4]; 1 h): 98%
- Concentration change (%) (stability) in rat plasma ([4]; 2 h): 96%
- Concentration change (%) (stability) in rat plasma ([4]; 6 h): 93%
- Concentration change (%) (stability) in rat plasma ([4]; 24 h): 77%
- Concentration change (%) (stability) in rat plasma ([4]; 48 h): 51%

Compound: COc1ccc(/C=C/C(=O)C(C)(CC(=O)N(C)C)C(=O)/C=C/c2ccc(OC)c(OC)c2)cc1OC [Compound 7]
- stability in human plasma [2]: unexpectedly and dramatically improved
- IC50 ([1]; Homo sapiens, 120 h): 2 µM
- Concentration change (%) (stability) in acidic condition ([3]; 0 h): 100%
- Concentration change (%) (stability) in acidic condition ([3]; 1 h): 99%
- Concentration change (%) (stability) in acidic condition ([3]; 2 h): 99%
- Concentration change (%) (stability) in acidic condition ([3]; 4 h): 98%
- Concentration change (%) (stability) in acidic condition ([3]; 24 h): 81%
- Concentration change (%) (stability) in acidic condition ([3]; 48 h): 58%
- Concentration change (%) (stability) in rat plasma ([4]; 0 h): 100%
- Concentration change (%) (stability) in rat plasma ([4]; 1 h): 101%
- Concentration change (%) (stability) in rat plasma ([4]; 2 h): 100%
- Concentration change (%) (stability) in rat plasma ([4]; 6 h): 101%
- Concentration change (%) (stability) in rat plasma ([4]; 24 h): 99%
- Concentration change (%) (stability) in rat plasma ([4]; 48 h): 86%

Compound: CCCCC(C)(C(=O)/C=C/c1ccc(OC)c(OC)c1)C(=O)/C=C/c1ccc(OC)c(OC)c1 [Compound 8]
- IC50 ([1]; Homo sapiens, 120 h): 2.3 µM

Compound: COc1ccc(/C=C/C(=O)C(C)(CC(=O)N2CCOCC2)C(=O)/C=C/c2ccc(OC)c(OC)c2)cc1OC [Compound 11]
- IC50 (Androgen Receptor (AR); [6]): 2.2 µM

Compound: COc1ccc(/C=C/C(=O)C(F)(CC2CC2)C(=O)/C=C/c2ccc(OC)c(OC)c2)cc1OC [Compound 13]
- IC50 ([1]; Homo sapiens, 120 h): > 5 µM

Compound: COc1ccc(/C=C/C(=O)C(F)(CC2CCC2)C(=O)/C=C/c2ccc(OC)c(OC)c2)cc1OC [Compound 14]
- IC50 ([1]; Homo sapiens, 120 h): 3.6 µM

Compound: COc1ccc(/C=C/C(=O)C(F)(CC2CCCC2)C(=O)/C=C/c2ccc(OC)c(OC)c2)cc1OC [Compound 15]
- IC50 ([1]; Homo sapiens, 120 h): 3.2 µM

Compound: COc1ccc(/C=C/C(=O)C(F)(CC2CCCCC2)C(=O)/C=C/c2ccc(OC)c(OC)c2)cc1OC [Compound 16]
- IC50 ([1]; Homo sapiens, 120 h): 4 µM

Compound: CCN(CC)C(=O)CC(F)(C(=O)/C=C/c1ccc(OC)c(OC)c1)C(=O)/C=C/c1ccc(OC)c(OC)c1 [Compound 17]
- IC50 ([1]; Homo sapiens, 120 h): > 7.5 µM

Compound: COc1ccc(/C=C/C(=O)C(F)(CC(=O)N(C)C)C(=O)/C=C/c2ccc(OC)c(OC)c2)cc1OC [Compound 18]
- IC50 (Androgen Receptor (AR); [6]): > 5 µM
- IC50 [1]: > 7.5 µM

Compound: CCCCC(F)(C(=O)C=Cc1ccc(OC)c(OC)c1)C(=O)C=Cc1ccc(OC)c(OC)c1 (stereo not shown) [Compound 19]
- IC50 ([1]; Homo sapiens, 120 h): 4.7 µM

Compound: CCN(CC)C(=O)CC(Cl)(C(=O)/C=C/c1ccc(OC)c(OC)c1)C(=O)/C=C/c1ccc(OC)c(OC)c1 [Compound 20]
- IC50 ([1]; Homo sapiens, 120 h): 4 µM

Compound: COc1ccc(/C=C/C(=O)C(Cl)(CC(=O)N(C)C)C(=O)/C=C/c2ccc(OC)c(OC)c2)cc1OC [Compound 21]
- IC50 ([1]; Homo sapiens, 120 h): > 7.5 µM

Compound: CCOC(=O)CCC(C)(C(=O)/C=C/c1ccc(OC)c(OC)c1)C(=O)/C=C/c1ccc(OC)c(OC)c1 [Compound 22]
- IC50 (Androgen Receptor (AR); [6]): 1.8 µM

Compound: CCOC(=O)CCC(F)(C(=O)/C=C/c1ccc(OC)c(OC)c1)C(=O)/C=C/c1ccc(OC)c(OC)c1 [Compound 23]
- IC50 (Androgen Receptor (AR); [6]): > 5 µM

Compound: CCN(CC)C(=O)CC(C)(C(=O)C=CC=Cc1ccc(OC)c(OC)c1)C(=O)C=CC=Cc1ccc(OC)c(OC)c1 (stereo not shown) [Compound 32]
- IC50 (Androgen Receptor (AR); [6]): 2.8 µM

Compound: CCN(CC)C(=O)CC(C(=O)/C=C/c1ccc(OC)c(OC)c1)C(=O)/C=C/c1ccc(OC)c(OC)c1 [JM49]
- reducing endogenous AR expression (Androgen Receptor (AR); various concentrations, Western Blot (FIG. 6)): capable of reducing endogenous AR expression
- stability in human plasma [2]: chemically unstable
- Concentration change (%) (stability) in acidic condition ([3]; 0 h): 100%
- Concentration change (%) (stability) in acidic condition ([3]; 1 h): 73%
- Concentration change (%) (stability) in acidic condition ([3]; 2 h): 56%
- Concentration change (%) (stability) in acidic condition ([3]; 6 h): 38%
- Concentration change (%) (stability) in acidic condition ([3]; 24 h): 4%
- Concentration change (%) (stability) in rat plasma ([4]; 0 h): 100%
- Concentration change (%) (stability) in rat plasma ([4]; 1 h): 68%
- Concentration change (%) (stability) in rat plasma ([4]; 2 h): 54%
- Concentration change (%) (stability) in rat plasma ([4]; 6 h): 27%
- Concentration change (%) (stability) in rat plasma ([4]; 24 h): 2%
- Concentration change (%) (stability) in rat plasma ([4]; 48 h): 0%

Compound: COc1ccc(/C=C/C(=O)C(CC(=O)N(C)C)=C(O)/C=C/c2ccc(OC)c(OC)c2)cc1OC [JM77]
- stability in human plasma [2]: chemically unstable
- Concentration change (%) (stability) in acidic condition ([3]; 0 h): 100%
- Concentration change (%) (stability) in acidic condition ([3]; 1 h): 14%
- Concentration change (%) (stability) in acidic condition ([3]; 2 h): 8%
- Concentration change (%) (stability) in acidic condition ([3]; 6 h): 0%
- Concentration change (%) (stability) in acidic condition ([3]; 24 h): 0%
- Concentration change (%) (stability) in rat plasma ([4]; 0 h): 100%
- Concentration change (%) (stability) in rat plasma ([4]; 1 h): 93%
- Concentration change (%) (stability) in rat plasma ([4]; 2 h): 88%
- Concentration change (%) (stability) in rat plasma ([4]; 6 h): 73%
- Concentration change (%) (stability) in rat plasma ([4]; 24 h): 27%
- Concentration change (%) (stability) in rat plasma ([4]; 48 h): 7%
